Test results published in publication PMC8325564 (Biochemistry, 2020).
Several values for one entry are separate records, joined by “and”; a condition that tells them apart may be missing. Equal entries are not always repeated. Where two headings read alike, the source gives them in different places.

What was measured:
AK3 [1] = molecular target: T1, AK3 (Homo sapiens, UniProt Q9UIJ7); experiment: biochemical; conditions: KI´ (competitive inhibition), mixed inhibition model, 1.7 mM ATP, AMP variation
[2] = system: AKeco (E. coli adenylate kinase); conditions: cited from earlier work
AK3 [3] = molecular target: T1, AK3; experiment: isothermal titration calorimetry; format: binding; conditions: for ΔHITC0: ITC binding enthalpy; for ΔHITC0 / −TΔSITC0 / ΔGITC0 / Kd: 25 °C; for −TΔSITC0: ITC binding entropy term; for ΔGITC0: ITC binding free energy; for n: ITC binding ratio (stoichiometry); for Kd: ITC
LcrG = LcrG (Yersinia pseudotuberculosis serotype I, UniProt P69958); experiment: biochemical; format: binding
AKeco [4] = molecular target: T2, AKeco (Escherichia coli, UniProt P69441); experiment: NMR titration of ATP to AKeco with adenosine binding sites blocked by AP5A; design: species or system E. coli
AK3 [5] = molecular target: T1, AK3; experiment: NMR 15N-HSQC chemical shift titration of ligand binding to AK3
human α-synuclein = human α-synuclein (Homo sapiens, UniProt P37840); experiment: NMR titration of ATP to α-synuclein; format: binding
AKeco [6] = molecular target: T2, AKeco; conditions: binding to AKeco; cited from earlier work
AK3 [7] = molecular target: T1, AK3; experiment: coupled enzymatic assay of AK3 activity; format: biochemical
[8] = Table 2, average of three technical replicates, pH 7.0

T1 sequence (Q9UIJ7 whole entry): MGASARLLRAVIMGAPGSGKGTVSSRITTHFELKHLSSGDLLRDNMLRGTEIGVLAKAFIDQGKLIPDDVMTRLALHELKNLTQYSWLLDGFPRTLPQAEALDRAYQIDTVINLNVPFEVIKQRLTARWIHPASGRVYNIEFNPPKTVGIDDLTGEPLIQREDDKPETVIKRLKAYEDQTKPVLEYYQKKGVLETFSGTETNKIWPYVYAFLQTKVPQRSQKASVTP
T2 sequence (P69441 whole entry): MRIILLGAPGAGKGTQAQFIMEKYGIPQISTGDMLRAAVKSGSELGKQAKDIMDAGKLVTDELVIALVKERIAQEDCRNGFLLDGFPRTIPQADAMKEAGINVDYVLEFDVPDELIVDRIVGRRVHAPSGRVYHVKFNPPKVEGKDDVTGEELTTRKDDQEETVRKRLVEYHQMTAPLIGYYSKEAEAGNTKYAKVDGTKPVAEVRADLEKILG
LcrG, sequence (P69958 whole entry, looked up): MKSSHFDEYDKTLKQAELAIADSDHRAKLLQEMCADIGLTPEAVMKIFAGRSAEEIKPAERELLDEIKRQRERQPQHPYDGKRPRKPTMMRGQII

SMILES | Ki (AK3 [1]) | Km ([2]; AKeco with ATP) | difference of the catalytic activity between ATP and GTP ([2]; AKeco) | ΔHITC0 (AK3 [3]; pH 7.0) | −TΔSITC0 (AK3 [3]; pH 7.0) | ΔGITC0 (AK3 [3]; pH 7.0) | n (AK3 [3]) | Kd (AK3 [3]; 30 mM MOPS pH 7.0, 50 mM NaCl) | Kd (AK3 [3]; [8]) | Kd (LcrG) | Kd (AKeco [4]) | Kd (AK3 [5]) | Kd (human α-synuclein) | Kd (AKeco [6]) | catalytic GTP versus ATP specificity (AK3 [7])
Nc1ncnc2c1ncn2[C@@H]1O[C@H](COP(=O)(O)OP(=O)(O)OP(=O)(O)O)[C@@H](O)[C@H]1O [ATP, adenosine triphosphate] | 200 µM | 63 ± 7 µM | 60 fold | −11.1 ± 0.5 kcalmol^−1 | 4.4 ± 0.6 kcalmol^−1 | −6.7 ± 0.1 kcalmol^−1 | 0.94 ± 0.015 | ~13 µM | 13 ± 2 µM | 12000 ± 800 µM | 12000 ± 2100 µM | 9000 ± 3800 µM | 13000 ± 2400 µM | 50 µM | –
Nc1ncnc2c1ncn2[C@@H]1O[C@H](COP(=O)(O)O)[C@@H](O)[C@H]1O [AMP, adenosine monophosphate] | – | – | – | – | – | – | – | – | – | – | – | – | – | 210 ± 66 µM | –
Nc1nc2c(ncn2[C@@H]2O[C@H](COP(=O)(O)OP(=O)(O)OP(=O)(O)O)[C@@H](O)[C@H]2O)c(=O)[nH]1 [GTP, guanosine triphosphate] | – | – | – | −11.3 ± 0.3 kcalmol^−1 | 3.5 ± 0.4 kcalmol^−1 | −7.8 ± 0.1 kcalmol^−1 | 1.07 ± 0.025 | ~2 µM and 2 µM | 2.1 ± 0.5 µM | – | – | 1700 ± 1000 µM | – | – | ~40 fold
